{"source": "paper PMC8152350", "about": "“High cytotoxicity of betulin towards fish and murine fibroblasts: Is betulin safe for nonneoplastic cells?” (BMC Veterinary Research, 2021)", "key": {"[1]": {"tested_on": "CCRF/CEM (leukaemia)", "set-up": "method as in PMID 23595090", "settings": "MTT assay; cited from earlier work"}, "[2]": {"tested_on": "DLD-1", "set-up": "method as in PMID 16787747", "settings": "read-out: IC50 of betulin; cited from earlier work"}, "[3]": {"tested_on": "BF-2 cells", "assay": "NRU assay (lysosomal membrane integrity), fish fibroblasts", "assay_type": "cell-based, bluegill", "settings": "BF-2, regardless of the time of incubation", "protocol": "(§1) BF-2 (ATCC CCL-91) bluegill caudal trunk fibroblasts were grown in minimum essential medium (Eagle, EBSS) supplemented with 1 % nonessential amino acids (NEAAs), 10 % foetal bovine serum and 1 % antibiotic-antimycotic solution at 23 °C in a humidified atmosphere with 5 % CO2.\n(§2) All experiments were repeated three times.\n(§3) The NRU assay evaluates lysosomal membrane integrity. It measures neutral red dye accumulation within lysosomes of viable cells.\n(§4) The NRU assay was performed using a commercially available kit (TOX4) (Sigma-Aldrich, Poland) according to the manufacturer’s protocol. The full description of the test procedure was also provided in a published article."}, "[4]": {"assay": "NRU assay (lysosomal membrane integrity), fish fibroblasts", "assay_type": "cell-based, bluegill", "settings": "bluegill, BF-2 caudal trunk fibroblasts, mean ± SD, n = 3", "protocol": "as §1, §2, §3, §4"}, "[5]": {"tested_on": "SK-MEL-28", "set-up": "method as in PMID 12697374", "settings": "SK-MEL-28 melanoma; read-out: IC50 of betulin; cited from earlier work"}, "[6]": {"tested_on": "murine fibroblasts (Balb 3T3 line)", "set-up": "method as in PMID 23595090", "settings": "Balb 3T3, incubation time not given; cited from earlier work"}, "[7]": {"tested_on": "HL60", "set-up": "method as in PMID 12697374", "settings": "HL60 leukaemia; read-out: IC50 of betulin; cited from earlier work"}, "[8]": {"tested_on": "BF-2 cells", "assay": "LDH leakage assay (cellular membrane integrity), fish fibroblasts", "assay_type": "cell-based, bluegill", "settings": "BF-2, 24 h", "protocol": "as §1, §2\nThe LDH assay measures leakage of the stable cytosolic enzyme lactate dehydrogenase into the culture medium, which is an indicator of irreversible cell membrane damage and cell death.\nThe LDH assay was performed using a commercially available kit (TOX7) (Sigma-Aldrich, Poland) according to the manufacturer’s protocol. The full description of the test procedure was also reported previously. The results obtained are reported as the percentage of LDH leakage to the culture media in control (nontreated) cells."}, "[9]": {"tested_on": "porcine chondrocytes", "settings": "cited from earlier work"}, "[10]": {"tested_on": "veterinary pathogens, both bacterial and viral", "assay": "Antimicrobial activity towards veterinary pathogens (data not shown)"}, "[11]": {"tested_on": "BF-2 cells", "assay": "SRB assay (total cellular protein content), fish fibroblasts", "assay_type": "cell-based, bluegill", "settings": "BF-2", "protocol": "as §1, §2\n(§5) The sulforhodamine B colorimetric assay measures the cellular protein content, and the assay results are proportional to the number of cells.\n(§6) The SRB assay was performed using a commercially available kit (TOX6) (Sigma-Aldrich, Poland) according to the manufacturer’s protocol. In this assay, SRB binds to protein components of trichloroacetic acid-fixed cells, and the protein-bound dye is extracted with Tris. The results obtained are presented as the percentage of the total cellular protein content in control (nontreated) cells."}, "[12]": {"assay": "SRB assay (total cellular protein content), fish fibroblasts", "assay_type": "cell-based, bluegill", "settings": "bluegill, BF-2 caudal trunk fibroblasts, n = 3", "protocol": "as §1, §2, §5, §6"}, "[13]": {"assay": "Solubility of betulin in DMSO", "assay_type": "physicochemical", "settings": "organic solvent or mixture, thermodynamic from solid, room temperature, read-out: maximum solubility of betulin in DMSO", "protocol": "We were able to dissolve 5000 µg of betulin in 1 mL of DMSO, although it required heating, and the solution remained unstable. After mixing with the cell culture medium, the solution immediately became slightly turbid.\nA stock solution of betulin was prepared in DMSO at a concentration of 2500 µg/mL, and working solutions were prepared in cell maintenance media (serum-free) at final concentrations of 0 (control cells), 0.244, 0.488, 0.976, 1.95, 3.9, 7.8, 15.625 and 31.25 µg/mL immediately before use in cell culture."}, "[14]": {"tested_on": "human lung fibroblasts (WI 38)", "set-up": "method as in PMID 12697374", "settings": "WI 38, trypan blue exclusion, 72 h, cited from earlier work"}, "[15]": {"tested_on": "NIH/3T3 cells", "assay": "in vitro", "assay_type": "cell-based, mouse", "settings": "NIH/3T3, 72 h", "protocol": "as §2, §5, §6"}, "[16]": {"assay": "in vitro", "assay_type": "cell-based, mouse", "settings": "mouse", "protocol": "as §2, §5, §6"}, "[17]": {"tested_on": "porcine chondrocytes", "settings": "cited from earlier work", "remark": "listed apart in the source"}, "[18]": {"tested_on": "B16 cells (B164A5 and B16F10)", "set-up": "method as in PMID 25756279", "settings": "B16 melanoma cells; cited from earlier work"}, "[19]": {"tested_on": "human skin fibroblasts (WS1)", "set-up": "method as in PMID 16787747", "settings": "WS1, resazurin reduction test, 48 h, cited from earlier work"}, "[20]": {"tested_on": "A375 (melanoma)", "set-up": "method as in PMID 22627971, PMID 23379693", "settings": "A375, 20 µM; cited from earlier work"}, "[21]": {"tested_on": "NIH/3T3 cells", "assay": "NRU assay (lysosomal membrane integrity), murine fibroblasts", "assay_type": "cell-based, mouse", "settings": "NIH/3T3, beginning at 48 h", "protocol": "as §2, §3, §4"}, "[22]": {"assay": "NRU assay (lysosomal membrane integrity), murine fibroblasts", "assay_type": "cell-based, mouse", "settings": "mouse, NIH/3T3 embryonic fibroblasts, n = 3", "protocol": "as §2, §3, §4"}, "[23]": {"tested_on": "NB-1", "set-up": "method as in PMID 12697374", "settings": "NB-1 neuroblastoma; read-out: IC50 of betulin; cited from earlier work"}, "[24]": {"tested_on": "human skin fibroblasts (HSF)", "settings": "24-h exposure, cited from earlier work"}}, "note": "Read-outs that look alike come from different tables or passages of the source."}
{"smiles": "C=C(C)[C@@H]1CC[C@]2(CO)CC[C@]3(C)[C@H](CC[C@@H]4[C@@]5(C)CC[C@H](O)C(C)(C)[C@@H]5CC[C@]43C)[C@@H]12", "note": "[betulin, Betulin]", "values": [{"measurement": "IC50 of betulin", "setting": "[1]", "result": 10.9, "unit": "µg/mL"}, {"measurement": "IC50", "setting": "[2]", "result": 6.6, "unit": "µM"}, {"measurement": "betulin concentration causing considerable decrease in viability (NRU)", "setting": "[3]", "result": "at least 15.625 µg/mL"}, {"measurement": "CC50 at 24 h", "setting": "[4]; BF-2, 24 h, read-out: CC50 betulin NRU 24 h", "result": "27.6 ± 9.01", "unit": "µg/mL"}, {"measurement": "CC50 at 48 h", "setting": "[4]; BF-2, 48 h, read-out: CC50 betulin NRU 48 h", "result": "16.5 ± 3.6", "unit": "µg/mL"}, {"measurement": "CC50 at 72 h", "setting": "[4]; BF-2, 72 h, read-out: CC50 betulin NRU 72 h", "result": "14.5 ± 3.41", "unit": "µg/mL"}, {"measurement": "IC50", "setting": "[5]", "result": 16.2, "unit": "µM"}, {"measurement": "IC50 of betulin (SRB)", "setting": "[6]", "result": 47.3, "unit": "µg/mL"}, {"measurement": "IC50", "setting": "[7]", "result": 14.7, "unit": "µM"}, {"measurement": "betulin concentration inducing substantial LDH leakage", "setting": "[8]", "result": 7.8, "unit": "µg/mL"}, {"measurement": "betulin concentration causing considerable decrease in viability (MTT)", "setting": "[9]", "result": 0.02, "unit": "µg/mL"}, {"measurement": "antimicrobial activity towards tested veterinary pathogens", "setting": "[10]", "result": "did not confirm the antimicrobial activity"}, {"measurement": "betulin concentration causing considerable decrease in the number of cells (SRB)", "setting": "[11]", "result": "at least 15.625 µg/mL"}, {"measurement": "CC50 at 24 h", "setting": "[12]; BF-2, 24 h, read-out: CC50 betulin SRB 24 h", "result": "> 31.2", "unit": "µg/mL"}, {"measurement": "CC50 at 48 h", "setting": "[12]; BF-2, 48 h, read-out: CC50 betulin SRB 48 h", "result": "> 31.2", "unit": "µg/mL"}, {"measurement": "CC50 at 72 h", "setting": "[12]; BF-2, 72 h, read-out: CC50 betulin SRB 72 h", "result": "> 31.2", "unit": "µg/mL"}, {"measurement": "solubility", "setting": "[13]", "result": 2500, "unit": "µg/mL"}, {"measurement": "IC50 of betulin, converted", "setting": "[14]; conversion of µM value", "result": "ca. 6.75 µg/ml"}, {"measurement": "IC50", "setting": "[14]; read-out: IC50 of betulin", "result": 15.2, "unit": "µM"}, {"measurement": "betulin concentration causing considerable decrease in total cellular protein content (SRB)", "setting": "[15]", "result": "≥ 1.95", "unit": "µg/mL"}, {"measurement": "CC50", "setting": "[16]; NIH/3T3, 24 h, mean ± SD, n = 3, read-out: CC50 betulin SRB 24 h", "result": "10.9 ± 7.34", "unit": "µg/mL"}, {"measurement": "CC50", "setting": "[16]; NIH/3T3, 48 h, mean ± SD, n = 3, read-out: CC50 betulin SRB 48 h", "result": "4.05 ± 1.24", "unit": "µg/mL"}, {"measurement": "CC50", "setting": "[16]; NIH/3T3, 72 h, mean ± SD, n = 3, read-out: CC50 betulin SRB 72 h", "result": "3.76 ± 0.572", "unit": "µg/mL"}, {"measurement": "CC50", "setting": "[16]; NIH/3T3, depending on incubation time (24-72 h), read-out: CC50 of betulin in SRB assay, range over incubation times", "result": "3.76 to 10.9", "unit": "µg/mL"}, {"measurement": "betulin concentrations not affecting integrity of the cytoplasmic membrane (LDH)", "setting": "[17]", "result": "up to 5.12 µg/mL"}, {"measurement": "betulin concentration from which almost complete lack of cell mitochondrial activity was observed (MTT)", "setting": "[18]", "result": "≥ 15", "unit": "µM"}, {"measurement": "IC50 of betulin, converted", "setting": "[19]; conversion of µM value", "result": "ca. 1.6 µg/ml"}, {"measurement": "IC50", "setting": "[19]; read-out: IC50 of betulin", "result": 3.58, "unit": "µM"}, {"measurement": "inhibitory activity of betulin", "setting": "[20]", "result": 33.9, "unit": "%"}, {"measurement": "betulin concentration causing considerable decrease in viability (NRU)", "setting": "[21]", "result": "≥ 3.9", "unit": "µg/mL"}, {"measurement": "CC50 at 24 h", "setting": "[22]; NIH/3T3, 24 h, read-out: CC50 betulin NRU 24 h", "result": "> 15.6", "unit": "µg/mL"}, {"measurement": "CC50 at 48 h", "setting": "[22]; NIH/3T3, 48 h, mean ± SD, read-out: CC50 betulin NRU 48 h", "result": "7.33 ± 2.94", "unit": "µg/mL"}, {"measurement": "CC50 at 72 h", "setting": "[22]; NIH/3T3, 72 h, mean ± SD, read-out: CC50 betulin NRU 72 h", "result": "13 ± 2.94", "unit": "µg/mL"}, {"measurement": "IC50", "setting": "[23]", "result": 16.5, "unit": "µM"}, {"measurement": "betulin concentrations causing considerable LDH leakage, converted", "setting": "[24]; conversion of µM value", "result": "≥ 4.4", "unit": "µg/mL"}, {"measurement": "betulin concentrations not toxic, converted", "setting": "[24]; conversion of µM value", "result": "≤ 2.2", "unit": "µg/mL"}, {"measurement": "betulin concentrations causing considerable LDH leakage", "setting": "[24]", "result": "≥ 10", "unit": "µM"}, {"measurement": "betulin concentrations not toxic", "setting": "[24]", "result": "up to 5 µM"}]}
